Like-named read-outs stand apart in the source and are kept apart here.
Key:
[1] = Singlet oxygen photogeneration (DPBF quenching); conditions: for change of DPBF absorbance at higher doses: 5 and 10 µM
Method: Singlet oxygen photoregeneration was carried out using 1, 3-diphenylisobenzofuran (DPBF) in DMSO. DPBF is a selective ^1O2 acceptor that reacts with ^1O2. The sample solutions of DPBF (50 μM) which contained DPBF only (50 μM, as a control), MB (1, 5, and 10 μM), chlorin e6 (1, 5, and 10 μM), and rhodin g7 7^1-ethyl ester (1, 5, and 10 μM) were prepared under dark conditions. All of the samples were placed in a 96-well plate, which was covered with aluminum foil. The samples were then irradiated (660 nm, 50 mW, 0.5 J/cm^2) for 1 min and 40 s, and after irradiation, the visible spectra of the sample solutions were measured spectrophotometrically. The normalized absorbance of DPBF at 418 nm was measured in these samples. The ^1O2 photo-generation activities of MB, chlorin e6, and rhodin g7 7^1-ethyl ester can be compared with the different absorbance decay of each sample relative to the DPBF control sample.

[2] = MTT cytotoxicity, statements over all cell lines of the panel; format: cell-based; conditions: mouse (B16F10), human (MIA PaCa-2, PANC-1, HT-29, AsPC-1), B16F10, MIA PaCa-2, PANC-1, HT-29 and AsPC-1 cells, read-out: cellular viability
Excerpt: (§1) B16F10 (KCLB80008), MIA PaCa-2 (KCLB21420), PANC-1 (KCLB21469), HT-29 (KCLB30038), AsPC-1 (KCLB21682), and Raw 264.7 (KCLB40071) cells were procured from the Korean Cell Line Bank (KCLB, Seoul, Republic of Korea). AsPC-1 and RAW264.7 were thawed and maintained in RPMI-1640 media (Life Technologies corporation, Carlsbad, CA, USA) supplemented with 10% fetal bovine serum (Life Technologies corporation, USA) and 1% penicillin and streptomycin (Life Technologies corporation, USA), while MIA PaCa-2, PANC-1, HT-29, and B16F10 cell lines were cultured in DMEM (Life technologies corporation, USA) containing 10% fetal bovine serum and 1% penicillin and streptomycin. All the cells were cultured at 37 °C in a 5% CO2 incubator.
(§2) After seeding B16F10 or MIA PaCa-2 at a density of 5 × 10^3 cells/well and PANC-1, HT-29, or AsPC-1 at a density of 1 × 10^4 cells/well in 96-well plates, the cells were incubated overnight at 37 °C in a CO2 incubator. […] After the incubation, the cells were either subjected to a 660 nm laser with a power density of 50 mW (0.5 J/cm^2) or not and were further incubated for 24 h at 37 °C. Moreover, the MTT assay was used to analyze the cell viability. The absorbance values of 540 nm were then measured using a microplate reader (Multiskan GO, Thermo Fisher Scientific, Oy, Ratastie 2, FI-01620 Vantaa, Finland).

[3] = system: B16F10, MIA PaCa-2, PANC-1, HT-29, AsPC-1; experiment: as above; format: cell-based
Excerpt: as §1, §2

[4] = system: ICR mice; experiment: Biodistribution, ex vivo organ fluorescence; format: in vivo; conditions: 2.5 mg/kg intravenous
Method: The animal study was approved by the Institutional Animal Care and Use Committee of the Dongsung Cancer Center under protocol IACUC # ds0022010107-2. The experiments were carried out in compliance with the ARRIVE guidelines. Male ICR mice (4 weeks old, OrientBio, Seongnam City, Republic of Korea) were used for the biodistribution study. The biodistribution analysis for rhodin g7 7^1-ethyl ester was calculated using tissue fluorescence. ICR mice (n = 7) were injected with or without rhodin g7 7^1-ethyl ester (2.5 mg/kg) intravenously. After the administration of rhodin g7 7^1-ethyl ester for 0, 24, 48, 72, 96, and 120 h, the mice were sacrificed, and their organs (kidney, spleen, heart, lungs, liver, skin, and pancreas) were resected. Fluorescence imaging was used to determine the ex vivo organ distributions of rhodin g7 7^1-ethyl ester utilizing the FOBI imaging system (Neo-Science, Suwon, Republic of Korea). For the rhodin g7 7^1-ethyl ester extraction, the organ tissues were then mixed with lysis buffer, homogenized in a tissue homogenizer, and centrifuged at 9000 rpm for 15 min. The rhodin g7 7^1-ethyl ester content in the supernatant was then evaluated using a Spark Multimode Microplate Reader (Tecan Trading AG, Männedorf, Switzerland) spectrophotometrically at 660 nm. The fluorescence intensity was adjusted to the tissue weight.

[5] = system: ICR mice; design: method as in PMID 30609768; conditions: chlorin e6, greatly declined at 24 h; cited from earlier work
[6] = complete absence of illumination, read-out: IC50 values dark toxicity, range over cell lines
[7] = light or radiation study, PDT, light dose 0.5 J/cm^2, five cancer cell lines, read-out: IC50 values post illumination, range over cancer cell lines

| SMILES | more singlet oxygen compared to chlorin e6 alone ([1]; 1 µM) | change of DPBF absorbance at higher doses [1] | viability ([2]; rhodin g7 7^1-ethyl ester dark, concentrations as high as 37.4 µM) | viability ([2]; rhodin g7 7^1-ethyl ester dark, doses as high as 660 µM, all cell lines) | IC50 [3, 6] | higher cytotoxicity compared to chlorin e6 ([3]; laser 0.5 J/cm^2, majority of the cancer cell lines) | IC50 [3, 7] | cellular viability ([3]; rhodin g7 7^1-ethyl ester PDT, concentrations higher than 53.7 µM, all cell lines) | time of peak fluorescence intensity post injection, all organs ([4]; 0-120 h) | organ with greatest signal intensity (predominant accumulation) ([4]; ex vivo FLI of excised organs) | viability ([2]; chlorin e6 dark, concentrations as high as 169.2 µM) | viability ([2]; chlorin e6 dark, concentrations up to 729.4 µM, all cell lines) | cellular viability ([3]; chlorin e6-PDT, concentrations greater than 59.8 µM, all cell lines) | viability at 7.8 µM ([3]; chlorin e6-PDT, dose of 7.8 µM, all cell lines, vs vehicle-treated control) | time of maximum fluorescence intensity post injection [5] |
| --- | --- | --- | --- | --- | --- | --- | --- | --- | --- | --- | --- | --- | --- | --- | --- |
| C=Cc1c(C)c2cc3nc(c(CC(=O)O)c4[nH]c(cc5nc(cc1[nH]2)C(C(=O)OCC)=C5CC)c(C)c4C(=O)O)[C@@H](CCC(=O)O)[C@@H]3C [rhodin g7 7^1-ethyl ester] | 11.12% | large increase in DPBF absorbance | ≥ 90% | < 10% | 163 to 389 µM | 2 fold | 8.4 to 49.1 µM | 10% | 0 h | liver | – | – | – | – | – |
| C=Cc1c(C)c2cc3nc(c(CC(=O)O)c4[nH]c(cc5nc(cc1[nH]2)C(C)=C5CC)c(C)c4C(=O)O)[C@@H](CCC(=O)O)[C@@H]3C [chlorin e6] | – | large increase in DPBF absorbance | – | – | 250 to 564 µM | – | 17.6 to 33.8 µM | – | – | – | ≥ 90% | < 10% | 10% | ≥ 90% | 0 h |

— paper PMC11240924, “Isolation, Identification, and Biological Activities of a New Chlorin e6 Derivative” (International Journal of Molecular Sciences, 2024)
